The source of these data is article PMC11364104, “Discovery of SARS-CoV-2 papain-like protease (PL^pro) inhibitors with efficacy in a murine infection model” (Science Advances, 2024).

The term hepatocyte CLint denotes the rate of metabolic loss divided by the concentration. Read a low hepatocyte CLint as slow turnover. One may read the Papp as a coefficient for how fast a substance crosses the barrier. The low end stands for slow passage, the high end for fast passage. The EC50 is the concentration at which the effect is half-maximal. The term Ki denotes the equilibrium dissociation constant of an inhibitor or competing ligand from its target. Low readings indicate a stronger hold on the target, high ones a looser hold on the target.

A short description of series [1]: in vitro. Particulars: human, hepatocytes.
Series [2] in a line: in vitro. Particulars: dog, MDCK.
Another series deals with SARS-CoV-2. In words: microbe, parasite or virus in culture. Format: cell-based.
The target of another series is SARS-CoV-2 PL^pro (Severe acute respiratory syndrome coronavirus 2, UniProt P0DTD1). In words: PLpro enzymatic assay (Z-RLRGG-AMC substrate cleavage). Format: biochemical. Particulars: geometric mean of at least three replicates.
The nature of series [3]: RRCK passive permeability. Particulars: dog, MDCK.
The nature of series [4]: Metabolic stability in cryopreserved human hepatocytes.
Where [5] appears, read: Severe acute respiratory syndrome coronavirus 2, Vero C1008, read-out: SARS-CoV-2 Vero E6 EC50 (nM)*.

Structures are written as SMILES. Like-named read-outs stand apart in the source and are kept apart here.

On to `Cc1ccc(N)cc1C(=O)N[C@H](C)c1cccc2ccccc12` [Compound 1], for which the intrinsic metabolic clearance (hepatocyte CLint) in the series “in vitro [1]” came out at 20.9 µL/min/1e6 cells. For the same molecule, in the series “in vitro [2]”, the Papp was determined as 45.6 ×10⁻⁶ cm/s. Also, the EC50 in the series on SARS-CoV-2 (Severe acute respiratory syndrome coronavirus 2, Vero C1008, read-out: EC50, cytopathic effect (CPE)) is 68200 nM.
`Cc1ccccc1C(=O)N[C@H](C)c1cc(-c2cnn(C)c2)nc2ccccc12` [Compound 2] gave an inhibition constant Ki on SARS-CoV-2 PL^pro of 116 nM. This molecule also gave a Papp in series [3] of 42 ×10⁻⁶ cm/s. Besides, the EC50 in the series on SARS-CoV-2 (setting [5]) was determined as 1580 nM. This molecule registered a hepatocyte CLint in series [4] of 13.9 µL/min/1e6 cells.
As for `Cc1ccc(N2CCN(C)CC2)cc1C(=O)N[C@H](C)c1cc(-c2cnn(C)c2)nc2ccccc12` [Compound 3], in series [3], the apparent permeability (Papp) stood at 41.9 ×10⁻⁶ cm/s. In addition, the EC50 in the series with SARS-CoV-2 (setting [5]) is 652 nM. The molecule further registered a hepatocyte CLint in series [4] of 12.8 µL/min/1e6 cells.
